Measurements from ChEMBL document CHEMBL5614436, “Targeting HSP90 for Cancer Therapy: Current Progress and Emerging Prospects” (J Med Chem, 2024).
One block for each molecule: values may come before it.

Tests used:
[1] = biological target: T1, Heat shock protein HSP 90-alpha (Homo sapiens, UniProt P07900); experiment: Binding affinity to HSP90alpha (unknown origin) assessed as dissociation constant by fluorescence polarization assay
[2] = biological target: Heat shock protein HSP 90-beta (Homo sapiens, UniProt P08238); experiment: Binding affinity to HSP90beta (unknown origin) assessed as dissociation constant by fluorescence polarization assay
Sequence of Heat shock protein HSP 90-beta (P08238 whole entry): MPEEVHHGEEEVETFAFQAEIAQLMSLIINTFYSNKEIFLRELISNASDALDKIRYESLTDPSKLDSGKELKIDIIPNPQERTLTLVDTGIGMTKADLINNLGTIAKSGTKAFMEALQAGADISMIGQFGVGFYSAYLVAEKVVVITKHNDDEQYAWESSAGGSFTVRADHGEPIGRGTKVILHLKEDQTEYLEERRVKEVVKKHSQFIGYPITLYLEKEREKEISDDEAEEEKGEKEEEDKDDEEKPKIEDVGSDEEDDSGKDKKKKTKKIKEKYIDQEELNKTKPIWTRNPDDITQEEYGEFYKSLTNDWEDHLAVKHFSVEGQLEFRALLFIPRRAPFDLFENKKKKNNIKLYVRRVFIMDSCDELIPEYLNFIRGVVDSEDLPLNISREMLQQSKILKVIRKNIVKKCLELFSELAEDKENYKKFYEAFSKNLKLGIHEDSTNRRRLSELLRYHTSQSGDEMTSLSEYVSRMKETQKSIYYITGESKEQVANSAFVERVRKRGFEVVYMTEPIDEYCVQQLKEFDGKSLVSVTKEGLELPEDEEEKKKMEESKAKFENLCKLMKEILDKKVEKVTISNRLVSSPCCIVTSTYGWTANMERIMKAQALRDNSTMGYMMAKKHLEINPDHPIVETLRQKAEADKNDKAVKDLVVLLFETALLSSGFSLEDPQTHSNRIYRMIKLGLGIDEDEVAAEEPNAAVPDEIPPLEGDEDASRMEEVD

[3] = Inhibition of HSP90 (unknown origin) by AlphaScreen assay; set-up: species or system Homo sapiens
[4] = biological target: T1, Heat shock protein HSP 90-alpha; experiment: Binding affinity to recombinant HSP90alpha (unknown origin) assessed as dissociation constant measured for 24 hrs by fluorescence polarization assay
Tubulin = experiment: Inhibition of tubulin polymerization (unknown origin); type: protein-complex assay, Homo sapiens
Endoplasmin = Endoplasmin (Homo sapiens, UniProt P14625); experiment: Inhibition of recombinant GRP94 (unknown origin)
Sequence of Endoplasmin (P14625 whole entry): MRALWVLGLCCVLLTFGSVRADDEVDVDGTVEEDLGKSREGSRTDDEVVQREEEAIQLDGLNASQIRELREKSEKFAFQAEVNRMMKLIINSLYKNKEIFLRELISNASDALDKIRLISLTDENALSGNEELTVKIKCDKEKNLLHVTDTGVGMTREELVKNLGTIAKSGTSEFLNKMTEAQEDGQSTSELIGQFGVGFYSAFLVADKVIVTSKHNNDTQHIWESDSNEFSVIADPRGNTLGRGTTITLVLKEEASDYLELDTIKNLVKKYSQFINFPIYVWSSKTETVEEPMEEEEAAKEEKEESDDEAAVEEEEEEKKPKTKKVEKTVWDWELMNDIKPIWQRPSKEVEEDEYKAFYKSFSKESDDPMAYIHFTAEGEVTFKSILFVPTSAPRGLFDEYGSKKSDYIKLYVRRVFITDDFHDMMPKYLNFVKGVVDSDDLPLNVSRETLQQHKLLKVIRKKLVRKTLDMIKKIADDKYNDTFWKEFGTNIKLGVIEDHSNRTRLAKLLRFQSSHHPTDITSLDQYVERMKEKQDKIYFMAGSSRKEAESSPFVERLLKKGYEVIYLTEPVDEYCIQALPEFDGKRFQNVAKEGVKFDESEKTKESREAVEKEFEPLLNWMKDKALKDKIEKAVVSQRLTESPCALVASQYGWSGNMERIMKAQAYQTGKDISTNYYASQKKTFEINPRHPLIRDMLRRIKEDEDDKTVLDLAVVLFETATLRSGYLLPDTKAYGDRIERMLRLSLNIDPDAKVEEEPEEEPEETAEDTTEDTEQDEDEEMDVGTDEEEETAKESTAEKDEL

[5] = biological target: T1, Heat shock protein HSP 90-alpha; experiment: Inhibition of HSP90alpha (unknown origin)
[6] = biological target: [Pyruvate dehydrogenase (acetyl-transferring)] kinase isozyme 1, mitochondrial (Homo sapiens, UniProt Q15118); experiment: Inhibition of PDHK1 (unknown origin)
Sequence of [Pyruvate dehydrogenase (acetyl-transferring)] kinase isozyme 1, mitochondrial (Q15118 whole entry): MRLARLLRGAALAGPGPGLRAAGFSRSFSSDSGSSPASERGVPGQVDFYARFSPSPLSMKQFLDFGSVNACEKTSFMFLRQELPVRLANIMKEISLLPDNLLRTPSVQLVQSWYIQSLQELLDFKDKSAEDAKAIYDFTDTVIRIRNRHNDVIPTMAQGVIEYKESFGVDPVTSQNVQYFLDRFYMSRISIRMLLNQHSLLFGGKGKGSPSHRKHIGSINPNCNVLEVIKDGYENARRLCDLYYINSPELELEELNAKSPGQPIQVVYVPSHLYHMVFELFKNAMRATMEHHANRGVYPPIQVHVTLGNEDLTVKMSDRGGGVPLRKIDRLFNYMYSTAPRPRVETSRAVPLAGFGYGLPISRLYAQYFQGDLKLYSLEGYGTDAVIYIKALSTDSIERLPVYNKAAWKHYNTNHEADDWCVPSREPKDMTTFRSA

[7] = Inhibition of DNA topoisomerase 2 (unknown origin); set-up: species or system Homo sapiens
[8] = biological target: Serine/threonine-protein kinase B-raf (Homo sapiens, UniProt P15056); experiment: Inhibition of B-Raf (unknown origin)
Sequence of Serine/threonine-protein kinase B-raf (Homo sapiens, UniProt P15056) (P15056 whole entry): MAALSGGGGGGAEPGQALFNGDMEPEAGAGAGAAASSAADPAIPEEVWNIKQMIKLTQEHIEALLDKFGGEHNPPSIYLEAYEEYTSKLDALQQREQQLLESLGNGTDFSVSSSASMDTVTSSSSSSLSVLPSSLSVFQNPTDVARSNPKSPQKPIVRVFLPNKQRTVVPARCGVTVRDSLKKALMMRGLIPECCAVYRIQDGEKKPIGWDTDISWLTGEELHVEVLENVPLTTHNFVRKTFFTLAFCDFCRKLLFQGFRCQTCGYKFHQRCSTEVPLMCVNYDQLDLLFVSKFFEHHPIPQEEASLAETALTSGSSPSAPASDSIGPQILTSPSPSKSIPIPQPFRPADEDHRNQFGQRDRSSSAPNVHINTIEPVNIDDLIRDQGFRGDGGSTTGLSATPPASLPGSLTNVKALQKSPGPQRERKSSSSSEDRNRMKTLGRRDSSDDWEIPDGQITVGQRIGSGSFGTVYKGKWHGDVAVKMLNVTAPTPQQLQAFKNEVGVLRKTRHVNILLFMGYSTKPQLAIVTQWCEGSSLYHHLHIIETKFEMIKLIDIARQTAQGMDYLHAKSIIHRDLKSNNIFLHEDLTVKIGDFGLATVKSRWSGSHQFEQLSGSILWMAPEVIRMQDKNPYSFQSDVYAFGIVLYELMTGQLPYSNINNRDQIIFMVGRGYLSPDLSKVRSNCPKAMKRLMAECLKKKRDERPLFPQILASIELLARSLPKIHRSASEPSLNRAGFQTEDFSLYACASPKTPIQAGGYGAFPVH

[9] = biological target: Serine/threonine-protein kinase B-raf (Homo sapiens, UniProt P15056, V600E); experiment: Inhibition of B-Raf V600E mutant (unknown origin)
Sequence of Serine/threonine-protein kinase B-raf (Homo sapiens, UniProt P15056, V600E) (P15056 2-766 V600E limits assumed): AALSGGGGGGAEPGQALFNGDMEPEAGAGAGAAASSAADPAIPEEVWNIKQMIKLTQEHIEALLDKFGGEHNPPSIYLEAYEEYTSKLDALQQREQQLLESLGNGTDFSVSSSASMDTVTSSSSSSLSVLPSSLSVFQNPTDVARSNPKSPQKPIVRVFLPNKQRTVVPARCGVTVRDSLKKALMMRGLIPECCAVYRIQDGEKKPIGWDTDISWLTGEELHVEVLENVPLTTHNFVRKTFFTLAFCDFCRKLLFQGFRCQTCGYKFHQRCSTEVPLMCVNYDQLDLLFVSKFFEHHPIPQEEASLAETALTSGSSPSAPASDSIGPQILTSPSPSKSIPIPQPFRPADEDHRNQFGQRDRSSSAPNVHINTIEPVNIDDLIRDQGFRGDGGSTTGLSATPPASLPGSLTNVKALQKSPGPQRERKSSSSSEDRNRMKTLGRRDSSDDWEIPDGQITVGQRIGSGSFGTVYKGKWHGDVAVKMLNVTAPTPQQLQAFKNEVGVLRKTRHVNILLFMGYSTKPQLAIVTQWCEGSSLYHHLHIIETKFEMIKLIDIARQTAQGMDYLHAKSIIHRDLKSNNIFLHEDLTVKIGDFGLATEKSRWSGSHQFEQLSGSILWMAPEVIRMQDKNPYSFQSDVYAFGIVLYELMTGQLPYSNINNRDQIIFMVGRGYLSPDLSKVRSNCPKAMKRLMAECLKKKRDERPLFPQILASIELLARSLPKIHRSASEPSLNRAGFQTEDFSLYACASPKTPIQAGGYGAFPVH

- Kd [1]: > 100000 nM
- Kd [2]: 270 nM
Structure (SMILES): CC(C)c1cc(C(=O)N2Cc3ccccc3C2)c(O)c2ccoc12

- Kd [2]: 9000 nM
Structure (SMILES): CC(C)c1cc(C(=O)N2Cc3ccc(CN4CCN(C)CC4)cc3C2)c(O)cc1O [ONALESPIB]

- IC50 [3]: 69 nM
Structure (SMILES): CC(C)c1cc(C(=O)N2CCc3c(sc4nc(-c5ccc(NC(=O)Nc6ccc(F)c(Cl)c6)cc5)nc(N5CCOCC5)c34)C2)c(O)cc1O

- Kd [1]: 870 nM
- Kd [4]: 870 nM
Structure (SMILES): CCOC(=O)c1c(O)cc(O)c(Cl)c1CC(=O)Nc1cc(O)c(OC)cc1O

- IC50 (Tubulin): 16700 nM
- IC50 [3]: 5200 nM
Structure (SMILES): CN(C)c1ccc(/C=C2\S/C(=N/c3ccccc3Cl)NC2=O)cc1

- IC50 (Endoplasmin): 200 nM
- IC50 [5]: 8100 nM
Structure (SMILES): CCOc1ccccc1Cn1ccnc1CCc1c(Cl)c(O)cc(O)c1C(=O)OC

- IC50 [6]: 10 nM
Structure (SMILES): COc1ccc(CN2CCC(NC(=O)c3noc(-c4cc(Cl)c(O)cc4O)c3-c3ccc(OC)cc3)CC2)cc1

- Kd [1]: 340 nM
- Kd [2]: > 100000 nM
Structure (SMILES): Cc1ccc(Sc2cc(C(=O)N3Cc4ccc(OCCC[N+](C)(C)C)cc4C3)ccc2O)cc1C

- IC50 [7]: 4480 nM
- IC50 [3]: 1780 nM
Structure (SMILES): CC1(C)CC(=O)C=C(Nc2c(N)[nH]c(=O)[nH]c2=O)C1

- IC50 [8]: 1500 nM
- IC50 [9]: 2500 nM
Structure (SMILES): N#Cc1c(N)nc2sc(C(N)=O)c(N)c2c1-c1ccc(Cl)cc1

- IC50 [8]: 28900 nM
- IC50 [9]: 9100 nM
Structure (SMILES): COc1ccc(-c2c(C#N)c(N)nc3sc(C(N)=O)c(N)c23)cc1OC

- IC50 [6]: 600 nM
Structure (SMILES): COc1ccc(-c2c(/C=C/C(=O)N3CCN(c4ccccc4OC)CC3)noc2-c2cc(Cl)c(O)cc2O)cc1

- Kd [1]: 5520 nM
Structure (SMILES): Cc1c(C)c(S(=O)(=O)Nc2ccc(Nc3ccnc(N4CCNCC4)n3)cc2)c(C)c2c1OC(C)(C)C2
